Experimental data: PMC4583543, “Development and Validation of a Novel Leishmania donovani Screening Cascade for High-Throughput Screening Using a Novel Axenic Assay with High Predictivity of Leishmanicidal Intracellular Activity” (PLoS Neglected Tropical Diseases, 2015)
Like-named read-outs stand apart in the source and are kept apart here.

Assays:
[1] = tested on: LdBOB axenic amastigote-like cells; test: Novel (cidal) axenic amastigote assay, BacTiter-Glo read-out; type: cell-based, Leishmania donovani
Source text: Leishmania donovani BOB cells (LdBOB) used in this study are a cloned line from strain MHOM/SD/62/1S-CL2 [13]. Cultures were maintained as described previously. Compounds were dispensed into 384-well assay plates by acoustic dispensing (LabCyte ECHO). […] Potencies are reported as pEC50 (-LOG(EC50[M])). All data was processed using IDBS ActivityBase. […] For compounds with low activity and poor definition of the curve top, B was fixed to 100. For the determination of the reference compound panel potency, all experiments were carried out with a minimum of three independent repeats. Test compounds were pre-dispensed into white 384 well plates (Corning). For library screens one compound per well was tested at the indicated final concentration. […] DMSO, zero percent effect control: cells at starting concentration. The zero percent effect control wells are left empty during the course of the assay. […] The assay volume is 25 μl / well. […] Plates were then sealed with clear film and relative luminescence was detected using a plate reader (Victor 3) from Perkin Elmer or PHERAstar FS from BMG LABTECH, with 0.5 s detection time per well).

[2] = tested on: eGFP expressing LdBOB amastigote-like cells in PMA differentiated THP-1 cells; test: Intramacrophage (intracellular, INMAC) assay; type: cell-based, Leishmania donovani; conditions: for EC50: Leishmania donovani
Procedure: (§1) Compounds were dispensed into 384-well assay plates by acoustic dispensing (LabCyte ECHO). […] Potencies are reported as pEC50 (-LOG(EC50[M])).
(§2) All data was processed using IDBS ActivityBase. […] Potency plates were normalised to DMSO control (0% effect) and 2μM amphotericin B control (100% effect). […] For compounds with low activity and poor definition of the curve top, B was fixed to 100. For the determination of the reference compound panel potency, all experiments were carried out with a minimum of three independent repeats.
(§3) The assay conditions are described previously. Briefly PMA differentiated THP-1 cells were infected overnight with eGFP expressing LdBOB amastigote-like cells at a multiplicity of infection of 5. Next, any remaining free amastigote-like cells are removed and compounds are added. The microscopy-based read-out is done after a four day compound incubation.

[3] = tested on: THP-1 cells; test: THP-1 host cell toxicity in the intramacrophage assay; type: cell-based, human; conditions: for EC50: Homo sapiens
Procedure: as §1, §2, §3

[4] = tested on: HepG2 cells; test: HepG2 assay (mammalian counterscreen, resazurin); type: cell-based, human; conditions: for EC50: Homo sapiens, read-out: HepG2 (potency, pEC50) (converted)
Procedure: Compounds were dispensed into 384-well assay plates by acoustic dispensing (LabCyte ECHO). […] Potencies are reported as pEC50 (-LOG(EC50[M])). All data was processed using IDBS ActivityBase. […] For compounds with low activity and poor definition of the curve top, B was fixed to 100. For the determination of the reference compound panel potency, all experiments were carried out with a minimum of three independent repeats. The assay conditions are described previously.

[5] = Leishmania donovani; read-out: Novel (axenic assay potency, pEC50) (converted)
[6] = THP-1, 96 h, read-out: Intramacrophage (potency, pEC50) (converted)
[7] = THP-1, reference compound panel, mean (standard deviation), host cell toxicity, read-out: THP-1 (potency, pEC50) (converted)
[8] = HepG2, reference compound panel, mean (standard deviation), 72 h
[9] = THP-1, 96 h, reference compound panel, mean (standard deviation), minimum three independent repeats, four day incubation, read-out: Intramacrophage (potency, pEC50) (converted)
[10] = reference compound panel; mean (standard deviation), minimum three independent repeats; top concentration 50 μM; pEC50 = -LOG(EC50[M])
[11] = reference compound panel, mean (standard deviation), minimum three independent repeats, four day incubation
[12] = reference compound panel, mean (standard deviation), host cell toxicity
[13] = reference compound panel, mean (standard deviation), 72 h
[14] = THP-1, DOS library compounds, dose response, read-out: INMAC (intracellular) pEC50 (converted)
[15] = Leishmania donovani; DOS library compounds, ten-point dose response; read-out: cAX pEC50 (converted)
[16] = THP-1, DOS library compounds, dose response, read-out: THP1 pEC50 (converted)
[17] = single concentration screen at 25 μM

SMILES | EC50 [1, 5] [µM] | EC50 [3, 7] [µM] | EC50 [4, 8] [µM] | EC50 [2, 9] [µM] | EC50 [2, 14] [µM] | further results
CC(C)Cn1cnc2c(N)nc3ccccc3c21 [Imiquimod] | > 50.1 | > 34.7 | > 50.1 |  |  | EC50 [2, 6]: > 34.7 µM
NCCCC(O)(P(=O)(O)O)P(=O)(O)O [Alendronic acid] | > 50.1 | > 34.7 | > 50.1 | > 34.7 |  | 
C[C@@H]1[C@H](O)[C@@H](C)/C=C/C=C/CC/C=C/C=C/C=C/C=C/C(O[C@H]2O[C@H](C)[C@@H](O)[C@H](N)[C@@H]2O)CC2O[C@](O)(CC(O)C(O)CCC(O)CC(O)CC(O)CC(=O)O[C@H]1C)CC(O)C2C(=O)O (stereo partly drawn) [Nystatin] |  |  |  |  |  | Novel (axenic assay potency, pEC50) [1, 10]: 5.19 (0.21); Intramacrophage (potency, pEC50) [2, 11]: 4.68 (0.5); THP-1 (potency, pEC50) [3, 12]: < 4.46; HepG2 (potency, pEC50) [4, 13]: < 4.3
CCCNC(=O)N1[C@H](C#N)[C@H](c2ccc(-c3cccc(OC)c3)cc2)[C@H]1CO [BRD6650 SSS stereoisomer] |  |  |  |  | 20 | 
CC(C)NC(=O)N1[C@H](C#N)[C@H](c2ccc(-c3ccc(F)cc3)cc2)[C@@H]1CO [BRD3486] |  |  |  |  | 6.31 | EC50 [1, 15]: 2 µM; EC50 [3, 16]: 10 µM
CCN(CC)Cc1cc(Nc2ccnc3cc(Cl)ccc23)ccc1O [Amodiaquine] | > 50.1 | 29.5 | 25.7 | 4.07 |  | activity in words (intracellular versus novel axenic) ([2]; reference compound panel): only active in the intracellular assay
CC1=CC(=O)c2ccccc2C1=O [Menadione] | 10.2 | 33.1 | 3.47 | > 34.7 |  | 
O=c1cc(-c2ccc(O)c(O)c2)oc2cc(O)cc(O)c12 [Luteolin] | 46.8 | 14.5 | 24.5 | 28.2 |  | 
OC(c1ccc(Cl)cc1)(c1cncnc1)c1ccccc1Cl (stereo not drawn) [Fenarimol] | > 50.1 | > 34.7 | > 50.1 | > 34.7 |  | 
CCCNC(=O)N1[C@H](CO)[C@@H](c2ccc(-c3cccc(OC)c3)cc2)[C@@H]1C#N [BRD6650 SSR stereoisomer] |  |  |  |  | 10 | 
C=CC(C)(C)c1cc(/C=C/C(=O)c2ccc(O)cc2)c(OC)cc1O [Licochalcone A] |  |  |  |  |  | Novel (axenic assay potency, pEC50) [1, 10]: 4.67 (0.15); Intramacrophage (potency, pEC50) [2, 11]: 4.65 (0.17); THP-1 (potency, pEC50) [3, 12]: 4.46 (0.01); HepG2 (potency, pEC50) [4, 13]: 4.44 (0.09)
CCCNC(=O)N1[C@H](C#N)[C@H](c2ccc(C#Cc3ccc(F)cc3)cc2)[C@@H]1CO [BRD1184] |  |  |  |  | 2 | EC50 [1, 15]: 0.631 µM; EC50 [3, 16]: 15.8 µM
CCCNC(=O)N1[C@H](C#N)[C@H](c2ccc(C#Cc3cccc(F)c3)cc2)[C@@H]1CO [BRD0645] |  |  |  |  | 3.98 | EC50 [1, 15]: 0.794 µM; EC50 [3, 16]: > 50.1 µM
CCCNC(=O)N1[C@H](C#N)[C@H](c2ccccc2-c2ccc(OC)cc2)[C@@H]1CO [BRD2647] |  |  |  |  | 6.31 | EC50 [1, 15]: 1.58 µM; EC50 [3, 16]: > 50.1 µM
C[C@@]12C(=O)OC(=O)[C@]1(C)[C@H]1CC[C@@H]2O1 [Cantharidin] |  |  |  |  |  | EC50 ([1]; Leishmania donovani, read-out: Novel (axenic assay potency, pEC50) (converted)): 4.37 µM; EC50 [2, 6]: 13.2 µM; EC50 ([3]; THP-1, read-out: THP-1 (potency, pEC50) (converted)): 2.75 µM; EC50 ([4]; HepG2, 72 h): 1.35 µM
COc1ccc2cc3[n+](cc2c1OC)CCc1cc2c(cc1-3)OCO2 [Berberine] | 9.33 | > 34.7 | 33.9 | 16.2 |  | 
N=C(N)c1ccc(OCCCCCOc2ccc(C(=N)N)cc2)cc1 [Pentamidine] | 8.71 | > 34.7 | 2.82 | 15.5 |  | 
CCCNC(=O)N1[C@@H](C#N)[C@@H](c2ccc(-c3cccc(OC)c3)cc2)[C@@H]1CO [BRD6650 RRR stereoisomer] |  |  |  |  | 50.1 | 

SMILES | EC50 [1, 5] [µM] | EC50 [3, 7] [µM] | EC50 [4, 8] [µM] | EC50 [2, 9] [µM] | EC50 [2, 14] [µM] | further results
CC(=O)O[C@@]12CO[C@@H]1C[C@H](O)[C@@]1(C)C(=O)[C@H](O)C3=C(C)[C@@H](OC(=O)[C@H](O)[C@@H](NC(=O)OC(C)(C)C)c4ccccc4)C[C@@](O)([C@@H](OC(=O)c4ccccc4)[C@H]21)C3(C)C [Docetaxel] | 8.91 | > 34.7 |  | 14.5 |  | 
CCCNC(=O)N1[C@H](C#N)[C@@H](c2ccc(-c3cccc(OC)c3)cc2)[C@H]1CO [BRD6650 SRS stereoisomer] |  |  |  |  | 20 | 
CCCNC(=O)N1[C@H](C#N)[C@@H](c2ccc(-c3cccc(OC)c3)cc2)[C@@H]1CO [BRD6650 RRS stereoisomer] |  |  |  |  | 15.8 | 
NC[C@@H]1O[C@H](O[C@H]2[C@@H](O)[C@H](O[C@@H]3[C@@H](O)[C@H](N)C[C@H](N)[C@H]3O[C@H]3O[C@H](CO)[C@@H](O)[C@H](O)[C@H]3N)O[C@@H]2CO)[C@H](N)[C@@H](O)[C@@H]1O [Paromomycin] | > 50.1 | > 34.7 | > 50.1 | > 34.7 |  | 
OC(c1cc(C(F)(F)F)nc2c(C(F)(F)F)cccc12)C1CCCCN1 (stereo not drawn) [Mefloquine] | > 50.1 | 12 | 9.77 | 8.51 |  | activity in words (intracellular versus novel axenic) ([2]; reference compound panel): only active in the intracellular assay
CC[C@@H]([C@H](C)O)n1ncn(-c2ccc(N3CCN(c4ccc(OC[C@@H]5CO[C@@](Cn6cncn6)(c6ccc(F)cc6F)C5)cc4)CC3)cc2)c1=O [Posaconazole] | 36.3 | 17.8 | 8.51 | 18.6 |  | 
COc1ccc(-c2ccccc2[C@H]2[C@@H](C#N)N(C(=O)NC3CCCC3)[C@H]2CO)cc1 [BRD9613] |  |  |  |  | 10 | EC50 [1, 15]: 1.58 µM; EC50 [3, 16]: > 50.1 µM
Cc1ccc(C(=O)Nc2ccc(S(=O)(=O)O)c3cc(S(=O)(=O)O)cc(S(=O)(=O)O)c23)cc1NC(=O)c1cccc(NC(=O)Nc2cccc(C(=O)Nc3cc(C(=O)Nc4ccc(S(=O)(=O)O)c5cc(S(=O)(=O)O)cc(S(=O)(=O)O)c45)ccc3C)c2)c1 [Suramin] | > 50.1 | > 34.7 | > 50.1 | > 34.7 |  | 
CCCNC(=O)N1[C@H](C#N)[C@H](c2ccc(-c3cccc(OC)c3)cc2)[C@@H]1CO [BRD6650] |  |  |  |  | 2 | EC50 [1, 15]: 0.501 µM; EC50 [3, 16]: > 50.1 µM
CCCNC(=O)N1[C@H](CO)[C@H](c2ccccc2-c2ccc(OC)cc2)[C@@H]1C#N [BRD2647 SRR stereoisomer] |  |  |  |  |  | activity in the initial HTS assay [1, 17]: inactive
CCCNC(=O)N1[C@H](C#N)[C@H](c2ccc(C3=CCCCC3)cc2)[C@@H]1CO [BRD5744] |  |  |  |  | 2 | EC50 [1, 15]: 0.794 µM; EC50 [3, 16]: > 50.1 µM
CC(C)(C)NC(=O)[C@@H]1CN(Cc2cccnc2)CCN1C[C@@H](O)C[C@@H](Cc1ccccc1)C(=O)N[C@H]1c2ccccc2C[C@H]1O [Indinavir] | > 50.1 | > 34.7 | > 50.1 | > 34.7 |  | 
CCCNC(=O)N1[C@H](CO)[C@H](c2ccc(-c3cccc(OC)c3)cc2)[C@@H]1C#N [BRD6650 SRR stereoisomer] |  |  |  |  | 31.6 | 
COc1ccc(-c2ccccc2[C@H]2[C@@H](C#N)N(C(=O)NC(C)C)[C@H]2CO)cc1 [BRD3029] |  |  |  |  | 12.6 | EC50 [1, 15]: 1.58 µM; EC50 [3, 16]: > 50.1 µM
CCCNC(=O)N1[C@H](C#N)[C@H](c2ccccc2-c2ccc(C)cc2)[C@@H]1CO [BRD4332] |  |  |  |  | 6.31 | EC50 [1, 15]: 0.631 µM; EC50 [3, 16]: > 50.1 µM
CCCNC(=O)N1[C@H](C#N)[C@H](c2ccc(-c3cccnc3)cc2)[C@@H]1CO [BRD9157] |  |  |  |  | 1.58 | EC50 [1, 15]: 12.6 µM; EC50 [3, 16]: > 50.1 µM
CCCNC(=O)N1[C@H](C#N)[C@@H](c2ccccc2-c2ccc(OC)cc2)[C@@H]1CO [BRD2647 RRS stereoisomer] |  |  |  |  | 39.8 | 
CCCNC(=O)N1[C@H](CO)[C@@H](c2ccccc2-c2ccc(OC)cc2)[C@@H]1C#N [BRD2647 SSR stereoisomer] |  |  |  |  |  | activity in the initial HTS assay [1, 17]: inactive
